Legend:
[1] = physchem; settings: 1-octanol/PBS, pH 7.4
[2] = Ratio of drug uptake in 129/C57BL/6J mouse brain to plasma at 30 mg/kg, po after 2 hrs by UHPLC/MS/MS analysis; assay type: ADME, organism-based; settings: brain and plasma, read-out: BPR

logD at 1 h [1] | Kp at 2 h [2] | Structure (SMILES)
1.4 |  | O=S(=O)(Nc1cscn1)c1cc(Cl)c(NCc2cc(CN3CCC3)ccc2F)cc1F
1.5 |  | C[C@H](Nc1cc(F)c(S(=O)(=O)Nc2cscn2)cc1Cl)c1cc(CN2CCC2)ccc1F
3.4 | 0.28 | COc1ccc(F)c([C@H](C)Nc2cc(F)c(S(=O)(=O)Nc3cscn3)cc2Cl)c1

Reference: ChEMBL document CHEMBL4414586, “Identification of CNS-Penetrant Aryl Sulfonamides as Isoform-Selective NaV1.6 Inhibitors with Efficacy in Mouse Models of Epilepsy” (J Med Chem, 2019)
